Measured values from patent US20020052295A1, “Diacyl derivatives of propylene diamine having herbicidal activity” (priority 1999, published 2002).

Columns and labels:
Conditions in all cases: lowest tested rate giving 80% or greater inhibition, approx. 14 days after planting and treating, greenhouse
ABUTH = test: Pre-emergence herbicidal activity on ABUTH (velvetleaf); format: in vivo, Abutilon theophrasti
In short: (§1)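 In this greenhouse test, compound in acetone/water (50:50) was put on the soil surface directly after seeds were sown and covered. Plants received overhead irrigation and were held at 30/21 °C day/night. About 14 days on, inhibition relative to untreated controls gave GR80.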

SOLNI = test: Pre-emergence herbicidal activity on SOLNI (black nightshade); format: in vivo, Solanum nigrum
In short: as §1

AMARE = test: Pre-emergence herbicidal activity on AMARE (redroot pigweed); format: in vivo, Amaranthus retroflexus
In short: as §1

DATST = test: Pre-emergence herbicidal activity on DATST (jimsonweed); format: in vivo, Datura stramonium
In short: as §1

CHEAL = test: Pre-emergence herbicidal activity on CHEAL (common lambsquarters); format: in vivo, Chenopodium album
In short: as §1

CONAR = test: Pre-emergence herbicidal activity on CONAR (field bindweed); format: in vivo, Convolvulus arvensis
In short: as §1

POROL = test: Pre-emergence herbicidal activity on POROL (common purslane); format: in vivo, Portulaca oleracea
In short: as §1

CIRAR = test: Pre-emergence herbicidal activity on CIRAR (canada thistle, seedling); format: in vivo, Cirsium arvense
In short: as §1

ECHCG = test: Pre-emergence herbicidal activity on ECHCG (barnyardgrass); format: in vivo, Echinochloa crus-galli
Excerpt: (§2) All such uses, and the biological activity enabling such uses, are embraced by the term “herbicidal” herein. Tables 15 and 16 summarize results of tests conducted as described below to determine the pre-emergence herbicidal activity, in the form of a GR80 value, of illustrative compounds of this invention. […] Where herbicidal activity was evident but 80% inhibition was not achieved at the highest rate tested (typically 1000 g/ha), an asterisk (*) is shown in the following tables. Herbicidal activity evident in the form of symptoms of phytotoxicity, in the absence of at least 80% inhibition at any rate, is indicated in the tables by “phyto”. A blank cell in the following tables indicates no herbicidal or phytotoxic response at any rate tested.
(§3) The pre-emergence tests were conducted by the following procedure. Topsoil was sieved to pass through a 1.27 cm screen. Fertilizer was added to the topsoil and the mixture was then sterilized by heating. The topsoil mixture was placed in a pot and compacted to a depth of 1.0 to 1.25 cm from the top of the pot. Seeds of each of several monocotyledonous and dicotyledonous annual plant species were placed on top of the soil. Additional soil was subsequently placed over the seeds to level-fill the pot. A known amount of each test compound dissolved or suspended in an appropriate organic solvent was diluted with a 50:50 mix of acetone and water and applied to the surface of the soil. After treatment the plants were placed in a greenhouse with a 30/21° C. day/night temperature regime where they received 0.64 cm of overhead irrigation. All subsequent watering consisted of a light overhead mist and/or subirrigation as needed for germination and growth.
(§4) Approximately 14 days after planting and treating, the plants were observed and herbicidal efficacy recorded as percent inhibition by comparison with untreated plants.
(§5) The plant species usually regarded as weeds which were utilized in the tests are identified in the tables below according to the following legend, in which “d” indicates a dicotyledonous species and “m” a monocotyledonous species. All monocotyledonous species included in the tests herein are grasses.

PANMI = test: Pre-emergence herbicidal activity on PANMI (wild proso millet); format: in vivo, Panicum miliaceum
In short: as §1

SORHA = test: Pre-emergence herbicidal activity on SORHA (johnsongrass, seedling); format: in vivo, Sorghum halepense
In short: as §1

SETFA = test: Pre-emergence herbicidal activity on SETFA (giant foxtail); format: in vivo, Setaria faberi
In short: as §1

PANDI = test: Pre-emergence herbicidal activity on PANDI (fall panicum); format: in vivo, Panicum dichotomiflorum
In short: as §1

SORVU = test: Pre-emergence herbicidal activity on SORVU (shattercane); format: in vivo, Sorghum vulgare
Excerpt: as §2, §3, §4, §5

BRAPP = test: Pre-emergence herbicidal activity on BRAPP (broadleaf signalgrass); format: in vivo, Brachiaria platyphylla
In short: as §1

DIGSA = test: Pre-emergence herbicidal activity on DIGSA (large crabgrass); format: in vivo, Digitaria sanguinalis
In short: as §1

Row | Structure (SMILES) | Pre-emergence activity (GR80) on ABUTH (ABUTH) | Pre-emergence activity (GR80) on SOLNI (SOLNI) | Pre-emergence activity (GR80) on AMARE (AMARE) | Pre-emergence activity (GR80) on DATST (DATST) | Pre-emergence activity (GR80) on CHEAL (CHEAL) | Pre-emergence activity (GR80) on CONAR (CONAR) | Pre-emergence activity (GR80) on PORAL (POROL) | Pre-emergence activity (GR80) on CIRAR (CIRAR) | Pre-emergence activity (GR80) on ECHCG (ECHCG) | Pre-emergence activity (GR80) on PANMI (PANMI) | Pre-emergence activity (GR80) on SORHA (SORHA) | Pre-emergence activity (GR80) on SETFA (SETFA) | Pre-emergence activity (GR80) on PANDI (PANDI) | Pre-emergence activity (GR80) on SORVU (SORVU) | Pre-emergence activity (GR80) on BRAPP (BRAPP) | Pre-emergence activity (GR80) on DIGSA (DIGSA)
1 | CC(CNC(=O)c1cccc(C(F)(F)F)c1)NC(=O)c1cccc(C(F)(F)F)c1Cl (centres unmarked) [Example 14] | 250 g/ha | 125 g/ha | 125 g/ha | 64 g/ha | 64 g/ha | 125 g/ha | 125 g/ha | 64 g/ha | 1000 g/ha | 500 g/ha | 500 g/ha | 250 g/ha | 250 g/ha | phyto | 500 g/ha | 125 g/ha
2 | Cc1c(F)cccc1C(=O)NC(C)CNC(=O)c1cccc(C(F)(F)F)c1 (centres unmarked) [Example 38] | 125 g/ha | 250 g/ha | 32 g/ha | 125 g/ha | 64 g/ha | 250 g/ha | 32 g/ha | 125 g/ha | 1000 g/ha | 250 g/ha | 500 g/ha | 250 g/ha | 250 g/ha | * (Where herbicidal activity was evident but 80% inhibition was not achieved at the highest rate tested (typically 1000 g/ha), an asterisk (*) is shown) | 250 g/ha | 125 g/ha
3 | COc1c(F)cccc1C(=O)NC(C)CNC(=O)c1cccc(C(F)(F)F)c1 (centres unmarked) [Example 40] | phyto | phyto | 750 g/ha | 1000 g/ha | 750 g/ha | phyto | * (Where herbicidal activity was evident but 80% inhibition was not achieved at the highest rate tested (typically 1000 g/ha), an asterisk (*) is shown) | – | phyto | phyto | phyto | 1000 g/ha | 750 g/ha | phyto | * (Where herbicidal activity was evident but 80% inhibition was not achieved at the highest rate tested (typically 1000 g/ha), an asterisk (*) is shown) | –
4 | Cc1ccc(Cl)cc1C(=O)NC(C)CNC(=O)c1cccc(C(F)(F)F)c1 (centres unmarked) [Example 47] | 250 g/ha | 125 g/ha | 64 g/ha | 250 g/ha | 64 g/ha | 750 g/ha | 125 g/ha | 125 g/ha | phyto | 250 g/ha | 750 g/ha | 250 g/ha | 250 g/ha | phyto | 500 g/ha | 125 g/ha
5 | CC(CNC(=O)c1cccc(C(F)(F)F)c1)NC(=O)c1cccc(Cl)c1F (centres unmarked) [Example 49] | 64 g/ha | 125 g/ha | 64 g/ha | 64 g/ha | 64 g/ha | 750 g/ha | 64 g/ha | 64 g/ha | 500 g/ha | 125 g/ha | 250 g/ha | 125 g/ha | 64 g/ha | * (Where herbicidal activity was evident but 80% inhibition was not achieved at the highest rate tested (typically 1000 g/ha), an asterisk (*) is shown) | 500 g/ha | 64 g/ha
6 | CC(CNC(=O)c1cccc(C(F)(F)F)c1)NC(=O)c1cccc(Cl)c1Cl (centres unmarked) [Example 50] | 750 g/ha | 125 g/ha | 32 g/ha | 125 g/ha | 32 g/ha | 250 g/ha | 32 g/ha | 64 g/ha | * (Where herbicidal activity was evident but 80% inhibition was not achieved at the highest rate tested (typically 1000 g/ha), an asterisk (*) is shown) | 1000 g/ha | 1000 g/ha | 750 g/ha | 250 g/ha | * (Where herbicidal activity was evident but 80% inhibition was not achieved at the highest rate tested (typically 1000 g/ha), an asterisk (*) is shown) | 500 g/ha | 125 g/ha
7 | Cc1c(Cl)cccc1C(=O)NC(C)CNC(=O)c1cccc(C(F)(F)F)c1 (centres unmarked) [Example 51] | 250 g/ha | 125 g/ha | 125 g/ha | 250 g/ha | 64 g/ha | 1000 g/ha | 64 g/ha | 125 g/ha | * (Where herbicidal activity was evident but 80% inhibition was not achieved at the highest rate tested (typically 1000 g/ha), an asterisk (*) is shown) | 250 g/ha | 1000 g/ha | 250 g/ha | 250 g/ha | phyto | 500 g/ha | 64 g/ha
8 | CC(CNC(=O)c1cccc(C(F)(F)F)c1)NC(=O)c1cccc(OC(F)(F)F)c1 (centres unmarked) [Example 72] | 1000 g/ha | – | 125 g/ha | 1000 g/ha | 500 g/ha | * (Where herbicidal activity was evident but 80% inhibition was not achieved at the highest rate tested (typically 1000 g/ha), an asterisk (*) is shown) | 250 g/ha | 500 g/ha | phyto | phyto | * (Where herbicidal activity was evident but 80% inhibition was not achieved at the highest rate tested (typically 1000 g/ha), an asterisk (*) is shown) | 500 g/ha | 500 g/ha | phyto | 1000 g/ha | 250 g/ha
